The record followed here is article PMC11375437, “Selective labelling of GBA2 in cells with fluorescent β-D-arabinofuranosyl cyclitol aziridines” (Chemical Science, 2024).

The experiment deals with T1, GBA2 (Homo sapiens, UniProt Q9HCG7).
T1 sequence (Q9HCG7 1-927): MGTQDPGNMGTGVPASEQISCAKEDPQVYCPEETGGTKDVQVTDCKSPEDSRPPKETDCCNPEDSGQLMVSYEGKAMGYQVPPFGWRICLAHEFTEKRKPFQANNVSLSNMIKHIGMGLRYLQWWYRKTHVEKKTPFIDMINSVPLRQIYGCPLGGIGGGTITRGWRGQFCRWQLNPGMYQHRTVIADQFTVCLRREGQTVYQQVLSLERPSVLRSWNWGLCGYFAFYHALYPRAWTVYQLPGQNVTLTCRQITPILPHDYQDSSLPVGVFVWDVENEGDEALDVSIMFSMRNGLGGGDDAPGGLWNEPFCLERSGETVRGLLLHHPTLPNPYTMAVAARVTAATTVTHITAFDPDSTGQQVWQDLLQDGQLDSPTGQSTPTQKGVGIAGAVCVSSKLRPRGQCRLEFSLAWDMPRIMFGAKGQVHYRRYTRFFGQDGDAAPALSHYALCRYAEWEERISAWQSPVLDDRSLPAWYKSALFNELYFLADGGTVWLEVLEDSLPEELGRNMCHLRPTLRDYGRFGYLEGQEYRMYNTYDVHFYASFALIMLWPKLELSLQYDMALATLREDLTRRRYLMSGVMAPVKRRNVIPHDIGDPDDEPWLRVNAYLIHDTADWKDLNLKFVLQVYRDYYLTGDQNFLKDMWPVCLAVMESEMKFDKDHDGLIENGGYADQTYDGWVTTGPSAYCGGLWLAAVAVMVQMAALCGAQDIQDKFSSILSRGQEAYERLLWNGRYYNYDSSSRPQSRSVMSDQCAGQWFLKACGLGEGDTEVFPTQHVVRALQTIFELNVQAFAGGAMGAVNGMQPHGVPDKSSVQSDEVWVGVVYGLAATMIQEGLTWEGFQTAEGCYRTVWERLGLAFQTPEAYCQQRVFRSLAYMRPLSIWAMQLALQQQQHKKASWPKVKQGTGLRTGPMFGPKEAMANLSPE
The experiment is described as follows: In situ labelling/inactivation in intact HEK293T cells (endogenous GBA1, GBA2/GBA3 OE). It counts as cell-based. Further details: expressed in transfected cells; host or cells: HEK293T GBA1/GBA2 KO (CRISPR/Cas9), GBA2 overexpressed. To be noted: ESI Fig. S8B (24 h incubation). How it is done:
We next sought to investigate whether we could identify and localize active GBA2 molecules in human cells using our β-D-Araf aziridine ABPs. […] The lysates were then denatured, their protein content separated by SDS-PAGE and the resulting wet gel slabs scanned for fluorescence. Following this procedure, we observed that all three β-D-Araf ABPs 3–5 enter intact cells, where they react with GBA2, and given the enzyme lifetime (>24 h), also with newly synthesized GBA2 (Fig. 5A, ESI Fig. S8A and B ^†).
Figure S7. Fluorescent gel images of in situ labelling of intact HEK293T cells (GBA1 endogenous and GBA2/GBA3 OE) by arabinofuranosyl cyclitol configured ABPs 3-5, 14 and 20 after 1 h incubation. GAA = Lysosomal α glucosidase (EC 3.2.1.20, CAZy GH31).
Figure S8. […] Intact HEK293T cells were treated with β-D-Araf ABPs for 24 h at 37 °C with 7% CO2, then cells were collected and lysed for labelling studies with or without residual β-glucosidases activity read out. […]
2.8 β-Glucosidase inactivation visualized by competitive ABPP with SDS-PAGE In general, samples containing GBA1, GBA2 or GBA3 (see the exact constitution of these samples in the described case) are first incubated (in vitro or in situ) with the inactivator compounds, subsequently, the fluorescent readout ABPs were added and incubated with the mixture to reveal the residual active β-glucosidase enzymes. […]

SMILES strings stand for the structures.

In the case of `CC1=CC(C)=[N+]2C1=C(CCCCc1cn(CCCCCCCCN3[C@@H]4[C@H](CO)[C@@H](O)[C@H](O)[C@@H]43)nn1)c1c(C)cc(C)n1[B-]2(F)F` (some centres unmarked) [ABP 3], the “Concentration at which GBA2 is inactivated almost completely in intact cells” value worked out at 100 nM. Then `COc1ccc(C2=[N+]3C(=C(CCCCc4cn(CCCCCCCCN5[C@@H]6[C@H](CO)[C@@H](O)[C@H](O)[C@@H]65)nn4)c4ccc(-c5ccc(OC)cc5)n4[B-]3(F)F)C=C2)cc1` (some centres unmarked) [ABP 4], with 100 nM.
